We go through 13 compounds from patent publication US20230234936A1, “COMPOUND FOR TARGETING AND DEGRADING PROTEIN, AND PREPARATION METHOD THEREFOR AND USE THEREOF” (SHANGHAI LEADINGTAC PHARMACEUTICAL CO., LTD., priority 2020, published 2023).

Structures are written as SMILES.

In one experiment the target is T1, IRAK4 kinase (Homo sapiens, UniProt Q9NWZ3).
T1 sequence (Q9NWZ3 1-460): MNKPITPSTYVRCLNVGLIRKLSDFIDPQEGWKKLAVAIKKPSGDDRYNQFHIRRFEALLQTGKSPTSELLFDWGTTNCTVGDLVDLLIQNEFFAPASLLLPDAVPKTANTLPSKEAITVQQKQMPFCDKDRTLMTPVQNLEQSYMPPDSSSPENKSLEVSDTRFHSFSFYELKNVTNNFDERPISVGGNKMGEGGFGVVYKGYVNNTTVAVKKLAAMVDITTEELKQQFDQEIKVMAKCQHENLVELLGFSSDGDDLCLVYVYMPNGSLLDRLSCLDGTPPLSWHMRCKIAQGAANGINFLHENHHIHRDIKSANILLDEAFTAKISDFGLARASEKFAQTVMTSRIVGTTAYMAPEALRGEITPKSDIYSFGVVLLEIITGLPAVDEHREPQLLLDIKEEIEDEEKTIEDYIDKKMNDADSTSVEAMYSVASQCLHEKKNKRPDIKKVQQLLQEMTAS
The experiment is described as follows: IRAK4 kinase activity test (KinEASE-STK S1 HTRF kit). The class given is biochemical. The note with it: 2.5 nM kinase, 1 μM biotinylated polypeptide substrate, 7 μM ATP, 37° C. 120 min. The gist of the method:
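Compound in DMSO, serially diluted to 10000–0.038 nM final, incubated with 2.5 nM kinase, 1 μM biotinylated peptide substrate and 7 μM ATP at 37° C for 120 min. Eu-anti-phospho-Ser/Thr antibody plus streptavidin-XL665 stopped the reaction (1 h RT). HTRF 665/620 nm ratio gave % inhibition versus control; IC50 from nonlinear log-concentration fit.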

Experiment [1] concerns the target T2, IRAK4 protein in THP-1 cells (Homo sapiens, UniProt Q9NWZ3).
T2 construct: endogenous in cells; host or cells: THP-1
T2 sequence (Q9NWZ3 1-460): T1 sequence (Q9NWZ3 1-460)
The experiment is described as follows: Degradation of IRAK4 in THP-1 cells (Western blot). The class given is cell-based. The note with it: 24 hours, compound 1-3000 nM. The procedure:
Each well of the 24-well cell culture plate was inoculated with 0.95 mL THP-1 cells (stem cell bank of Chinese academy of sciences) with a cell density of 5×10^5 cells/well. The cell plate was placed in a 5% carbon dioxide incubator and cultured overnight at 37° C., then 50 μL compound in dimethyl sulfoxide was added. The final concentration of the compound was in the range of 1-3000 nM. After continuous cultivation for 24 hours, the cells were collected into a 1.5 mL centrifuge tube, centrifuged at 1000 rpm and 4° C. for 5 minutes. Cell precipitation was cleaned twice with 1-DPBS, resuspended cells were lysed with 200 μL lysate (cell lysate was Western and IP cell lysate (Beyotime), supplemented with 1 mM mixture of phenylmethylsulfonyl fluoride and protease inhibitor (Beyotime)), left on ice for 30 minutes, then centrifuged at 14000 g at 4° C. for 10 minutes, and the supernatant was taken to detect IRAK4 protein level by Western blot.
Western blot method: The total protein concentration in the supernatant of cell lysis was determined by BCA protein quantitative kit (Tiangen). According to the concentration of total protein detected by BCA, the supernatant was adjusted to 0.2 μg/μL with PBS and 5× SDS-PAGE protein loading buffer (Beyotime), bathed in water at 100° C. for 10 minutes, then placed in ice bath for 5 minutes, centrifuged at 14000 g and 4° C. for 5 minutes, and then collected as WB loading sample. Prefabricated glue (KeyGEN) was used for protein electrophoresis with a loading amount of 10 μL (total protein 2 μg). After Tris-MOPS-SDS electrophoresis solution (Adamas), 120V constant pressure electrophoresis was performed. After electrophoresis, the protein on the adhesive strip was transferred to PVDF membrane with a constant current of […] for 50 minutes. After the membrane was transferred, the membrane was placed in 1×QuickBlock blocking buffer (Beyotime) and incubated for 30 minutes at room temperature. After blocking, PVDF membranes were incubated with IRAK4 primary antibody (Abcam) overnight at 4°, the membranes were washed with TBST buffer (2.4 g Tris, 8.8 g NaCl, 1.5 mL Tween 20, pH adjusted to 7.4, constant volume to 1 L) for 30 minutes, incubated with secondary antibody (Abcam) for 2 hours at room temperature, finally incubated with Clarity Western ECL Substrate(BIO-RAD) for 5 minutes for luminescence development, chemiluminescence imaging system (Clinx, chemiScope 6200 Touch) for development and protein mapping photography. The protein map was analyzed by Clinx chemiluminescence analysis software for grayscale values. Using the formula: grayscale correction value=(target protein grayscale value/corresponding internal reference grayscale value)×10^3, the grayscale correction value of each sample was calculated. The degradation rate was calculated by comparing with the grayscale correction value of the control group. Furthermore, DC50 and Dmax values of the compound were obtained by the nonlinear curve fitting with the logarithmic concentration-inhibition rate by GraphPad Prism 7.

On IRAK4 kinase, `COc1ccc(C(=O)N2CCC3(CC2)CN(CCN2CCC(n4cc5cc(NC(=O)c6cccc(C(F)(F)F)n6)c(C(C)(C)O)cc5n4)CC2)C3)cc1N1CCC(=O)NC1=O` [Example 12, N-(2-(1-(2-(7-(3-(2,4-dioxotetrahydropyrimidin-1 (2H)-yl)-4-methoxybenzoyl)-2,7-diazaspiro [3.5]non-2-yl)ethyl)piperidin-4-yl)-6-(2-hydroxyprop-2-yl)-2H-indazol-5-yl)-6-(trifluoro-methyl) pyridinecarboxamide] yielded an IC50 of 7.9 nM. For the same compound, in experiment [1], the DC50 turned out to be 1.4 nM and the Dmax was 96.9%.
The like results for `CCOc1ccc(C(=O)N2CCC3(CC2)CC(CCN2CCC(n4cc5cc(NC(=O)c6cccc(C(F)(F)F)n6)c(C(C)(C)O)cc5n4)CC2)C3)cc1N1CCC(=O)NC1=O` [Example 25] were, in that order, 13.7 nM, 0.82 nM and 98%.
The like results for `COc1cc2nn(C3CCN(CC4CCC5(CC4)CCN(C(=O)c4ccc(OC)c(N6CCC(=O)NC6=O)c4)CC5)CC3)cc2cc1NC(=O)c1cccc(C(F)(F)F)n1` [Example 30, N-(2-(1-((3-(3-(2,4-dioxotetrahydro-pyrimidin-1 (2H)-yl)-4-me-thoxybenzoyl)-3-azaspiro[5.5]undec-9-yl)methyl)piperidin-4-yl)-6-methoxy-2H-indazol-5-yl)-6-(tri-fluoromethyl) pyridinecarbox-amide] were, in that order, 16 nM, 2.3 nM and 98.4%.
The like results for `CC(C)(O)c1cc2nn(C3CCN(CCN4CCC5(CC4)CCN(C(=O)c4ccc(Cl)c(N6CCC(=O)NC6=O)c4)CC5)CC3)cc2cc1NC(=O)c1cccc(C(F)(F)F)n1` [Example 17, N-(2-(1-(2-(9-(4-chloro-3-(2,4-dioxotetrahydro-pyrimidin-1 (2H)-yl)benzoyl)-3,9-diazaspiro[5.5]undec-3-yl)ethyl)piperidin-4-yl)-6-(2-hydroxyprop-2-yl)-2H-indazol-5-yl)-6-(trifluoro-methyl) pyridinecarbox-amide] were, in that order, 7.9 nM, 5.3 nM and 96.9%.
Consider `COc1cc2nn(C3CCN(CCCN4CCN(C(=O)c5ccc(OC)c(N6CCC(=O)NC6=O)c5)CC4)CC3)cc2cc1NC(=O)c1cccc(C(F)(F)F)n1` [Example 19, N-(2-(1-(3-(4-(3-(2,4-dioxotetrahydro-pyrimidin-1 (2H)-yl)-4-me-thoxybenzoyl)piperazin-1-yl)propyl)piperidin-4-yl)-6-methoxy-2H-in-dazol-5-yl)-6-(trifluorometh-yl) pyridinecarbox-amide], for which the IC50 against IRAK4 kinase turned out to be 16.9 nM. For the same compound, in experiment [1], it took 13.4 nM to reach half-maximal degradation (DC50) and the Dmax stood at 92.8%.
Taken in the same sequence, the figures for `CC(C)(C)C(=O)OCN1C(=O)CCN(c2cc(C(=O)N3CCC4(CCC(CCN5CCC(n6cc7cc(NC(=O)c8cccc(C(F)(F)F)n8)c(C(C)(C)O)cc7n6)CC5)CC4)CC3)ccc2Cl)C1=O` [Example 71, methyl (3-(2-chloro-5-(9-(2-(4-(6-(2-hydroxyprop-2-yl)-5-(6-(trifluoromethyl)pyridinecarboxamido)-2H-indazol-2-yl)piperidin-1-yl)ethyl)-3-azaspiro[5.5]undecyl-3-carbonyl)phenyl)-2,6-dioxotetrahydropyrimidin-1 (2H)-yl) pivalate] were 114 nM, 3.7 nM and 97%.
The like results for `COc1cc2nn(C3CCN(CCOC4CCN(C(=O)c5ccc(OC)c(N6CCC(=O)NC6=O)c5)CC4)CC3)cc2cc1NC(=O)c1cccc(C(F)(F)F)n1` [Example 20] were, in that order, 9.5 nM, 12.2 nM and 93.7%.
In the case of `COc1ccc(C(=O)N2CCC3(CCC(CCN4CCC(n5cc6cc(NC(=O)c7cccc(C(F)(F)F)n7)c(C(C)(C)O)cc6n5)CC4)CC3)CC2)cc1N1CCC(=O)NC1=O` [Example 21, N-(2-(1-(2-(3-(3-(2,4-dioxotetrahydro-pyrimidin-1 (2H)-yl)-4-me-thoxybenzoyl)-3-azaspiro [5.5]undec-9-yl)ethyl)piperidin-4-yl)-6-(2-hydroxyprop-2-yl)-2H-indazol-5-yl)-6-(trifluoro-methyl) pyridinecarbox-amide], the IC50 against IRAK4 kinase was found to be 18 nM. In experiment [1], this compound returned a DC50 of 4 nM and a Dmax of 90.1%.
Regarding `COc1cc2nn(C3CCN(CCC4CCC5(CC4)CCN(C(=O)c4ccc(Cl)c(N6CCC(=O)NC6=O)c4)CC5)CC3)cc2cc1NC(=O)c1cccc(C(F)(F)F)n1` [Example 48, N-(2-(1-(2-(3-(4-chloro-3-(2,4-dioxotetrahydro-pyrimidin-1 (2H)-yl)benzoyl)-3-azaspiro[5.5]undec-9-yl)ethyl)piperidin-4-yl)-6-methoxy-2H-in-dazol-5-yl)-6-(tri-fluoromethyl) pyridinecarbox-amide], at IRAK4 kinase, the IC50 amounted to 61.8 nM. In experiment [1], this compound returned a DC50 of 6 nM and a Dmax of 98%.
Taken in the same sequence, the figures for `COc1cc2nn(C3CCN(CCC4CCN(C(=O)c5ccc(OC)c(N6CCC(=O)NC6=O)c5)CC4)CC3)cc2cc1NC(=O)c1cccc(C(F)(F)F)n1` [Example 6, N-(2-(1-(2-(1-(3-(2,4-dioxotetrahydropyrim-idin-1 (2H)-yl)-4-methoxyben-zoyl)piperidin-4-yl)ethyl)piperidin-4-yl)-6-me-thoxy-2H-indazol-5-yl)-6-(trifluoromethyl) pyridinecarboxamide] were 7.6 nM, 24 nM and 91.7%.
Taken in the same sequence, the figures for `COc1cc2nn([C@H]3CC[C@H](CN(C)CC4CCN(C(=O)c5ccc(Cl)c(N6CCC(=O)NC6=O)c5)CC4)CC3)cc2cc1NC(=O)c1cccc(C(F)(F)F)n1` [Example 51, N-(2-((1r,4r)-4-((((1-(4-chloro-3-(2,4-dioxotetrahydro-pyrimidin-1 (2H)-yl)benzoyl)piperdin-4-yl)methyl) (methyl)amino)methyl)cyclohexyl)-6-methoxy-2H-inda-zol-5-yl)-6-(tri-fluoromethyl) pyridinecarbox-amide] were 11.3 nM, 27.5 nM and 95.4%.
The like results for `COc1cc2nn(C3CCN(CCCCN4CCC5(CC4)CCN(C(=O)c4ccc(OC)c(N6CCC(=O)NC6=O)c4)CC5)CC3)cc2cc1NC(=O)c1cccc(C(F)(F)F)n1` [Example 3] were, in that order, 2.7 nM, 23.1 nM and 90.5%.
For `COc1cc2nn(C3CCN(CCCCCN(C)C(=O)c4ccc(OC)c(N5CCC(=O)NC5=O)c4)CC3)cc2cc1NC(=O)c1cccc(C(F)(F)F)n1` [Example 9, N-(2-(1-(5-(3-(2,4-dioxotetrahydropyrimidin-1 (2H)-yl)-4-methoxy-N-methylbenzamido)pentyl)piperidin-4-yl)-6-methoxy-2H-indazol-5-yl)-6-(trifluoromethyl) pyridinecarboxamide], at IRAK4 kinase, half-maximal inhibition (IC50) was put at 18 nM. In experiment [1], this compound yielded a DC50 of 16.4 nM and a Dmax of 94.3%.
